Values quoted from earlier work, collected in patent publication US20080292693A1, “COMPOSITION AND METHOD FOR TREATING DIGESTIVE SYSTEM DISORDERS” (priority 2007, published 2008).

Assays:
Crohn's disease = details: double-blind clinical study, daily dose of 1,000 mg

C=C(C)[C@H]1CC=C(C)CC1 [d-Limonene]
symptoms of GERD (GERD; double-blind clinical study, daily dose of 1,000 mg): significantly reduce | responders free of GERD symptoms (GERD; one GERD study, for up to six months without taking an additional dose): fifty | symptoms of Crohn's disease (Crohn's disease): significantly reduce
